The source of these data is PubChem BioAssay (NCI).

Some test systems named below: SK-MEL-2 melanoma; HS 578T breast; RXF 393 renal; 786-0 renal; SK-MEL-28 melanoma; HOP-62 NSCLC; K-562 leukemia; BT-549 breast; SK-MEL-5 melanoma; UACC-257 melanoma; HT29 colon; CAKI-1 renal; NCI-H226 lung; HCT-15 colon; UO-31 renal; DU-145 prostate.
Common to all, as to test: growth of human tumour cells (NCI), 48 h

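Growth conditions: 96-well plates. Treatment: test compound, 48 hours, 5 concentrations. Analysis: linear interpolation between bracketing concentrations; unreached endpoints set to highest concentration. Definition used: TGI = concentration required for complete inhibition of growth.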

`N#C/C(=C\c1ccccc1)C(=O)Nc1nnc(-c2ccccc2)o1`: the TGI in the assay on SK-MEL-2 melanoma, in the assay with HS 578T breast, with RXF 393 renal, in the assay with 786-0 renal, in the assay with SK-MEL-28 melanoma and with HOP-62 NSCLC was over 100 µM in each case. The TGI is over 100 µM with K-562 leukemia; over 100 µM with BT-549 breast; 38.3 µM in the assay on SK-MEL-5 melanoma; 87.4 µM in the assay on UACC-257 melanoma; over 100 µM with HT29 colon; 73.2 µM in the assay on CAKI-1 renal. Also, the TGI in the assay with NCI-H226 lung, with HCT-15 colon, in the assay with UO-31 renal and in the assay with DU-145 prostate was over 100 µM each time.
On to `CCCCCC/C=C\CCCCCCCCCc1cccc(O)c1C(=O)O`, for which the TGI with SK-MEL-2 melanoma is 95.8 µM; with HS 578T breast, over 100 µM; with RXF 393 renal, over 100 µM; in the assay on 786-0 renal, over 100 µM; in the assay on SK-MEL-28 melanoma it was over 100 µM; in the assay on HOP-62 NSCLC, over 100 µM. Further, the TGI in the assay with K-562 leukemia, in the assay on BT-549 breast, in the assay on SK-MEL-5 melanoma, with UACC-257 melanoma, with HT29 colon and in the assay with CAKI-1 renal was over 100 µM throughout. Also, the TGI with NCI-H226 lung, in the assay with HCT-15 colon, in the assay with UO-31 renal and in the assay on DU-145 prostate was over 100 µM throughout.
`COC(=O)C1CC2(CCC1=O)Cc1ccccc1C2=O` (stereo not drawn): the TGI with SK-MEL-2 melanoma, in the assay on HS 578T breast, with RXF 393 renal, in the assay on 786-0 renal, in the assay on SK-MEL-28 melanoma and in the assay on HOP-62 NSCLC was over 100 µM in each case. Besides, the TGI in the assay with K-562 leukemia, in the assay on BT-549 breast, in the assay with SK-MEL-5 melanoma, in the assay on UACC-257 melanoma, in the assay with HT29 colon and in the assay with CAKI-1 renal was over 100 µM each time. The TGI with NCI-H226 lung, in the assay with HCT-15 colon, with UO-31 renal and in the assay on DU-145 prostate was over 100 µM throughout.
On to `COc1nc(N)c(NC2OC(CO)C(O)C2O)c(=O)[nH]1` (stereo not drawn), for which the TGI with SK-MEL-2 melanoma, with HS 578T breast, with RXF 393 renal, in the assay on 786-0 renal, in the assay with SK-MEL-28 melanoma and in the assay on HOP-62 NSCLC was over 100 µM throughout. Besides, the TGI in the assay on K-562 leukemia, in the assay on BT-549 breast, with SK-MEL-5 melanoma, with UACC-257 melanoma, in the assay with HT29 colon and with CAKI-1 renal was over 100 µM each time. Further, the TGI with NCI-H226 lung, with HCT-15 colon, in the assay on UO-31 renal and in the assay with DU-145 prostate was over 100 µM in each case.
Regarding `COc1nc2c(c(=O)n1C)N(C(C)=O)C1C(N2)OCC(OC(C)=O)C1OC(C)=O` (stereo not drawn), the TGI with SK-MEL-2 melanoma, with HS 578T breast, with RXF 393 renal, with 786-0 renal, with SK-MEL-28 melanoma and with HOP-62 NSCLC was over 10 µM each time. Besides, the TGI in the assay with K-562 leukemia, in the assay on BT-549 breast, with SK-MEL-5 melanoma, in the assay on UACC-257 melanoma, in the assay with HT29 colon and in the assay on CAKI-1 renal was over 10 µM throughout. For the same compound, the TGI in the assay on NCI-H226 lung, in the assay on HCT-15 colon, in the assay on UO-31 renal and in the assay with DU-145 prostate was over 10 µM in each case.
As to `O=C(N=S(NC(=O)c1ccccc1)C(Cl)(Cl)Cl)c1ccccc1` (stereo not drawn), the TGI was 70.1 µM with SK-MEL-2 melanoma; 99.5 µM with HS 578T breast; 18 µM in the assay on RXF 393 renal; 54.9 µM in the assay on 786-0 renal; 66.7 µM in the assay on SK-MEL-28 melanoma; over 31.6 µM in the assay with HOP-62 NSCLC. Moreover, the TGI is over 84 µM in the assay with K-562 leukemia; 32.4 µM in the assay on BT-549 breast; 20.5 µM in the assay on SK-MEL-5 melanoma; 83.8 µM in the assay with UACC-257 melanoma; 36.3 µM with HT29 colon; 54.9 µM with CAKI-1 renal. Also, the TGI in the assay with NCI-H226 lung is over 58.6 µM; in the assay on HCT-15 colon, 27 µM; with UO-31 renal it was 29.9 µM; with DU-145 prostate, over 100 µM.
With `CC(=O)OC1C(O)COC(O[C@H]2CC[C@]34C[C@]35CC[C@]3(C)C([C@@]6(C)CC[C@@H](C(C)(C)O)O6)[C@@H](O)C[C@@]3(C)C5C[C@H](OC3OCC(O)C(O)C3O)[C@H]4C2(C)C)C1OC1OCC(O)C(O)C1O` (stereo partly drawn), the TGI in the assay on SK-MEL-2 melanoma, with HS 578T breast, with RXF 393 renal, with 786-0 renal, in the assay with SK-MEL-28 melanoma and with HOP-62 NSCLC was over 100 µM each time. The TGI in the assay with K-562 leukemia, in the assay on BT-549 breast, in the assay on SK-MEL-5 melanoma, in the assay on UACC-257 melanoma, in the assay with HT29 colon and in the assay on CAKI-1 renal was over 100 µM in each case. The TGI with NCI-H226 lung, with HCT-15 colon, in the assay with UO-31 renal and with DU-145 prostate was over 100 µM each time.
For `CC(C)[C@@H]1NC(=O)[C@H]2N=C(O[C@@H]2C)[C@@H]2CCCN2C(=O)[C@H](Cc2ccccc2)NC(=O)[C@@H]2CSC(=N2)[C@@H](Cc2ccccc2)NC(=O)[C@@H]2CSC1=N2`, the TGI in the assay on SK-MEL-2 melanoma, with HS 578T breast, with RXF 393 renal, in the assay with 786-0 renal, with SK-MEL-28 melanoma and with HOP-62 NSCLC was over 50 µM in each case. For the same compound, the TGI with K-562 leukemia, in the assay on BT-549 breast, in the assay on SK-MEL-5 melanoma, in the assay on UACC-257 melanoma, with HT29 colon and in the assay on CAKI-1 renal was over 50 µM in each case. Besides, the TGI in the assay with NCI-H226 lung, in the assay with HCT-15 colon, with UO-31 renal and with DU-145 prostate was over 50 µM in each case.
For `Cc1n[nH]c(=O)c2cc(-c3ccccc3)[nH]c12`, the TGI in the assay on SK-MEL-2 melanoma was 91.1 µM; with HS 578T breast, over 100 µM; in the assay with RXF 393 renal, over 100 µM; in the assay with 786-0 renal, over 100 µM; in the assay on HOP-62 NSCLC it was over 100 µM; in the assay with K-562 leukemia, over 100 µM. Also, the TGI with BT-549 breast, in the assay on SK-MEL-5 melanoma, with UACC-257 melanoma, in the assay on HT29 colon, in the assay on CAKI-1 renal and with NCI-H226 lung was over 100 µM throughout. Besides, the TGI in the assay with HCT-15 colon, with UO-31 renal and with DU-145 prostate was over 100 µM throughout.
